Patent publication US11492362B1, “Pyridine derivatives for the treatment of hyperproliferative diseases” (King Abdulaziz University, priority 2022, dated 2022)
In brackets after ≈: the same amount, converted by molar mass.

Key:
[1] = test system: HL-60 (leukemia) cell lines; test: In vitro cytotoxicity, MTT assay; assay type: cell-based; conditions: Homo sapiens, 72 h; HL-60, MTT, 3 days
Experimental: Cells suspended in medium (2×10^4 cells/mL) were plated in 96-well culture plates and incubated at 37° C. in a 5% CO2 incubator. After 12 h, the test sample (2 μL) was added to the cells (2×10^4) in 96-well plates and cultured at 37° C. for 3 days. The cultured cells were mixed with 20 μL of MTT solution and incubated for 4 h at 37° C. The supernatant was carefully removed from each well and 100 μL of DMSO was added to each well to dissolve the formazan crystals which were formed by the cellular reduction of MTT. After mixing with a mechanical plate mixer, the absorbance of each well was measured by a microplate reader using a test wavelength of 570 nm. The results were expressed as the IC50 (μM), which induces a 50% inhibition of cell growth of the treated cells when compared to the growth of control cells. Each experiment was performed at least 3 times. There was a good reproducibility between the replicate wells with standard error [46].
In vitro cytotoxicity of the synthesized compounds 4, 6, and 7 was determined using the MTT assay against HL-60 (leukemia) cell lines. Doxorubicin (Doxo) one of the most efficient anticancer agentd was utilized as a reference compound in this study.

Leukemia HL-60 cell line = test: Cell cycle analysis, PI staining and DNA flow cytometry; assay type: cell-based, human; conditions: HL-60, compound at its IC50 concentration
Experimental: (§1) For cell cycle analysis, cell pellets were fixed with 70% ethanol on ice for 15 min and collected again. The collected pellets were incubated with propidium iodide (PI) staining solution ([…], 0.1 mg/mL RNaseA, 0.05% Triton X-100) at room temperature for 1 hour and analyzed by Gallios® flow cytometer (Beckman Coulter, Brea, Calif., USA). Apoptosis detection was performed by FITC Annexin V/PI commercial kit (Becton Dickenson, Franklin Lakes, N.J., USA) following the manufacturer's protocol. The samples were analyzed by fluorescence-activated cell sorting (FACS) with a Gallios® flow cytometer (Beckman Coulter, Brea, Calif., USA) within 1 h after staining. Data were analyzed using Kaluzav® 1.2 (Beckman Coulter).
Cell cycle analysis was assessed in Leukemia HL-60 cell line after staining the nuclei with propidium iodide (PI) followed by DNA flow cytometry analysis.

Leukemia HL-60 cells = test: Annexin V-FITC/PI apoptosis detection; assay type: cell-based, human; conditions: HL-60, Annexin V-FITC/PI
Experimental: as §1
Moreover, compound 4 increased the percentage of late apoptotic cells by 43.07-more than untreated control.

HL-60 = test: Confluency analysis; assay type: cell-based, human; conditions: HL-60, 50 μg/mL
[2] = test system: caspase 3/7 in Leukemia HL-60 cells; test: Activated caspase 3/7 assay; assay type: cell-based, human; conditions: HL-60, IC50 concentration, 24 h, flow cytometry; untreated control 0.54%
Experimental: Activities of caspases-3 and -7 were measured using DRG Caspase-3 (human) ELISA (EIA-4860) kit (DRG International Inc., USA), Invitrogen. Caspase-7 (Active) (human) ELISA kit, Catalog #KHO1091 (96 tests) (Invitrogen Corporation, USA) according to the manufacturer's instructions.
The activation of caspase 3/7 was determined in compound 4 treated Leukemia HL-60 cells at IC50 concentration using green flow cytometry assay for 24 h.

Structure (SMILES): CN(C)C=CC(=O)c1cccc(C(=O)C=CN(C)C)n1 [Compound 2, 2,6-Bis(3-dimethylamino-1-oxoprop-2-en-yl)pyridine]
- melting point: 236.4 to 237.2 °C

Structure (SMILES): CN(C)/C=C/C(=O)c1cccc(C(=O)/C=C\Nc2sc3c(c2C#N)CCCC3)n1 [Compound 6, 2-(((Z)-3-(6-((E)-3-(dimethylamino)acryloyl)pyridin-2-yl)-3-oxoprop-1-en-1-yl)amino)-4,5,6,7-tetrahydrobenzo[b]thiophene-3-carbonitrile]
- IC50 [1]: 3.66 ± 0.11 µg/mL (≈ 9 µM)

Structure (SMILES): c1cc(-c2ccn3cnnc3n2)nc(-c2ccn3cnnc3n2)c1 [Compound 4, 2,6-bis([1,2,4]triazolo[4,3-a]pyrimidin-7-yl)pyridine]
- percentage of cells at pre-G1 peak (Leukemia HL-60 cell line; control 1.42%): 19.32%
- cell percentage in the G2/M phase (Leukemia HL-60 cell line; untreated control 16.80%): 51.84%
- cell survival percentage in comparison with untreated control (Leukemia HL-60 cells): sharp decrease
- increase of percentage of early apoptotic cells versus untreated control (Leukemia HL-60 cells): 8.14 fold
- increase of percentage of late apoptotic cells versus untreated control (Leukemia HL-60 cells): 43.07
- IC50 [1]: 3.28 ± 0.13 µg/mL (≈ 10.4 µM)
- cell morphology in the image (HL-60): round, high-contrast objects
- level of caspase 3/7 percentage [2]: 10.04%

Structure (SMILES): COc1cccc2c1C(=O)c1c(O)c3c(c(O)c1C2=O)C[C@@](O)(C(=O)CO)C[C@@H]3O[C@H]1C[C@H](N)[C@H](O)[C@H](C)O1 [Dox, Doxorubicin, reference compound]
- IC50 [1]: 2.2 ± 0.08 µg/mL (≈ 4.05 µM)

Structure (SMILES): N#Cc1c(N/C=C\C(=O)c2cccc(C(=O)/C=C\Nc3sc4c(c3C#N)CCCC4)n2)sc2c1CCCC2 [Compound 7, 2,2′-(((1Z,1′Z)-pyridine-2,6-diylbis(3-oxoprop-1-ene-3,1-diyl))bis(azanediyl))bis(4,5,6,7-tetrahydrobenzo[b]thiophene-3-carbonitrile)]
- IC50 [1]: 28.5 ± 1.56 µg/mL (≈ 52.9 µM)
